{"source": "ChEMBL document CHEMBL5608186", "about": "“Design, synthesis and structure-activity relationships of novel non-ketolides: 9-Oxime clarithromycin featured with seven-to thirteen-atom-length diamine linkers at 3-OH” (Eur J Med Chem, 2024)", "key": {"Staphylococcus aureus [1]": {"test_system": "Staphylococcus aureus", "experiment": "Bactericidal activity against methicillin-resistant Staphylococcus aureus PU 20 harboring c-ermA gene incubated for 16 to 20 hrs by CLSI based broth microdilution method", "type": "functional", "settings": "time 16-20 hrs"}, "Streptococcus pyogenes [2]": {"test_system": "Streptococcus pyogenes", "experiment": "Bactericidal activity against Streptococcus pyogenes 01-968 harboring i-ermB gene incubated for 16 to 20 hrs by CLSI based broth microdilution method", "type": "functional", "settings": "time 16-20 hrs"}, "Streptococcus pneumoniae [3]": {"test_system": "Streptococcus pneumoniae", "experiment": "Selectivity ratio of MBC for Streptococcus pneumoniae 07P390 harboring c-erm gene to MIC for Streptococcus pneumoniae 07P390 harboring c-erm gene", "type": "functional"}, "Streptococcus pyogenes [4]": {"test_system": "Streptococcus pyogenes", "experiment": "Antibacterial activity against Streptococcus pyogenes 01-968 harboring i-ermB gene incubated for 16 to 20 hrs by CLSI based broth microdilution method", "type": "functional", "settings": "time 16-20 hrs"}, "Streptococcus pneumoniae [5]": {"test_system": "Streptococcus pneumoniae", "experiment": "Bactericidal activity against Streptococcus pneumoniae 07P390 harboring c-erm gene incubated for 16 to 20 hrs by CLSI based broth microdilution method", "type": "functional", "settings": "time 16-20 hrs"}, "Escherichia coli [6]": {"test_system": "Escherichia coli", "experiment": "Selectivity ratio of MIC for Escherichia coli SQ110 DTC harboring Gyr A Ser83Leu mutant to MIC for wild-type Escherichia coli SQ110 DTC", "type": "functional"}, "[7]": {"experiment": "Inhibition of Escherichia coli DNA supercoiling assessed as reduction in protein synthesis by firefly luciferase gene assay", "type": "functional"}, "Escherichia coli [8]": {"test_system": "Escherichia coli", "experiment": "Antibacterial activity against Escherichia coli SQ110 DTC harboring Gyr A Ser83Leu mutant incubated for 16 to 20 hrs by CLSI based broth microdilution method", "type": "functional", "settings": "time 16-20 hrs"}, "Haemophilus influenzae [9]": {"test_system": "Haemophilus influenzae", "experiment": "Bactericidal activity against Haemophilus influenzae ATCC 49247 incubated for 16 to 20 hrs by CLSI based broth microdilution method", "type": "functional", "settings": "time 16-20 hrs"}, "Staphylococcus aureus [10]": {"test_system": "Staphylococcus aureus", "experiment": "Antibacterial activity against methicillin-resistant Staphylococcus aureus PU 20 harboring c-ermA gene incubated for 16 to 20 hrs by CLSI based broth microdilution method", "type": "functional", "settings": "time 16-20 hrs"}, "HEK-293T": {"test_system": "HEK-293T", "experiment": "Cytotoxicity against HEK293T cells assessed as cell viability at 5 to 50 uM incubated for 48 hrs by CCK8 assay", "type": "toxicity, cell-based", "settings": "human, dose 5-50 µM"}, "[11]": {"experiment": "Metabolic stability in human liver microsomes assessed as unchanged drug at 1 uM incubated upto 60 mins in presence of NADPH by LC-MS/MS analysis", "type": "ADME, Microsome", "settings": "read-out: Stability"}, "[12]": {"experiment": "Metabolic stability in rat liver microsomes assessed as unchanged drug at 1 uM incubated upto 60 mins in presence of NADPH by LC-MS/MS analysis", "type": "ADME, Microsome", "settings": "read-out: Stability"}, "Streptococcus pneumoniae [13]": {"test_system": "Streptococcus pneumoniae", "experiment": "Selectivity ratio of MBC for Streptococcus pneumoniae ATCC 49619 to MIC for Streptococcus pneumoniae ATCC 49619", "type": "functional"}, "Haemophilus influenzae [14]": {"test_system": "Haemophilus influenzae", "experiment": "Selectivity ratio of MBC for Haemophilus influenzae ATCC 49247 to MIC for Haemophilus influenzae ATCC 49247", "type": "functional"}, "Streptococcus pneumoniae [15]": {"test_system": "Streptococcus pneumoniae", "experiment": "Antibacterial activity against Streptococcus pneumoniae PU 09 harboring mef gene incubated for 16 to 20 hrs by CLSI based broth microdilution method", "type": "functional", "settings": "time 16-20 hrs"}, "Escherichia coli [16]": {"test_system": "Escherichia coli", "experiment": "Selectivity ratio of MIC for Escherichia coli SQ110 DTC harboring 23S rRNA A2058G/Gyr A Ser83Leu mutant to MIC for wild-type Escherichia coli SQ110 DTC", "type": "functional"}, "Staphylococcus aureus [17]": {"test_system": "Staphylococcus aureus", "experiment": "Selectivity ratio of MBC for methicillin-resistant Staphylococcus aureus PU 32 harboring i-ermA gene to MIC for methicillin-resistant Staphylococcus aureus PU 32 harboring i-ermA gene", "type": "functional"}, "Escherichia coli [18]": {"test_system": "Escherichia coli", "experiment": "Antibacterial activity against wild-type Escherichia coli SQ110 DTC incubated for 16 to 20 hrs by CLSI based broth microdilution method", "type": "functional", "settings": "time 16-20 hrs"}, "Streptococcus pneumoniae [19]": {"test_system": "Streptococcus pneumoniae", "experiment": "Antibacterial activity against Streptococcus pneumoniae 07P390 harboring c-erm gene incubated for 16 to 20 hrs by CLSI based broth microdilution method", "type": "functional", "settings": "time 16-20 hrs"}, "HepG2": {"test_system": "HepG2", "experiment": "Cytotoxicity against human HepG2 cells assessed as cell viability at 5 to 50 uM incubated for 48 hrs by CCK8 assay", "type": "toxicity, cell-based", "settings": "hepg2, 48 h, dose 5-50 µM"}, "Streptococcus pneumoniae [20]": {"test_system": "Streptococcus pneumoniae", "experiment": "Antibacterial activity against Streptococcus pneumoniae ATCC 49619 incubated for 16 to 20 hrs by CLSI based broth microdilution method", "type": "functional", "settings": "time 16-20 hrs"}, "Haemophilus influenzae [21]": {"test_system": "Haemophilus influenzae", "experiment": "Antibacterial activity against Haemophilus influenzae ATCC 49247 incubated for 16 to 20 hrs by CLSI based broth microdilution method", "type": "functional", "settings": "time 16-20 hrs"}, "[22]": {"experiment": "Metabolic stability in human liver microsomes assessed as half life at 1 uM incubated upto 60 mins in presence of NADPH by LC-MS/MS analysis", "type": "ADME, Microsome"}, "Escherichia coli [23]": {"test_system": "Escherichia coli", "experiment": "Antibacterial activity against Escherichia coli SQ110 DTC harboring 23S rRNA A2058G/Gyr A Ser83Leu mutant incubated for 16 to 20 hrs by CLSI based broth microdilution method", "type": "functional", "settings": "time 16-20 hrs"}, "[24]": {"experiment": "Metabolic stability in human liver microsomes assessed as intrinsic clearance in liver at 1 uM incubated upto 60 mins in presence of NADPH by LC-MS/MS analysis", "type": "ADME, Microsome", "settings": "read-out: CLH"}, "[25]": {"experiment": "Metabolic stability in Escherichia coli SQ110 DTC assessed as unchanged drug at 5 to 10 times MIC measured after 60 mins by LC-MS/MS analysis", "type": "ADME", "settings": "Escherichia coli SQ110 DTC cells, read-out: Stability"}, "DNA gyrase": {"molecular_target": "DNA gyrase (Escherichia coli, UniProt P0AES4+P0AES6)", "experiment": "Inhibition of Escherichia coli DNA gyrase using pBR322 DNA as substrate incubated for 30 mins by electrophoresis", "type": "protein-complex assay"}, "Escherichia coli [26]": {"test_system": "Escherichia coli", "experiment": "Selectivity ratio of MIC for Escherichia coli SQ110 DTC harboring 23S rRNA A2058G mutant to MIC for wild-type Escherichia coli SQ110 DTC", "type": "functional"}, "Staphylococcus aureus [27]": {"test_system": "Staphylococcus aureus", "experiment": "Bactericidal activity against methicillin-resistant Staphylococcus aureus PU 32 harboring i-ermA gene incubated for 16 to 20 hrs by CLSI based broth microdilution method", "type": "functional", "settings": "time 16-20 hrs"}, "Streptococcus pneumoniae [28]": {"test_system": "Streptococcus pneumoniae", "experiment": "Bactericidal activity against Streptococcus pneumoniae PU 09 harboring mef gene incubated for 16 to 20 hrs by CLSI based broth microdilution method", "type": "functional", "settings": "time 16-20 hrs"}, "Streptococcus pneumoniae [29]": {"test_system": "Streptococcus pneumoniae", "experiment": "Bactericidal activity against Streptococcus pneumoniae ATCC 49619 incubated for 16 to 20 hrs by CLSI based broth microdilution method", "type": "functional", "settings": "time 16-20 hrs"}, "Streptococcus pyogenes [30]": {"test_system": "Streptococcus pyogenes", "experiment": "Selectivity ratio of MBC for Streptococcus pyogenes 01-968 harboring i-ermB gene to MIC for Streptococcus pyogenes 01-968 harboring i-ermB gene", "type": "functional"}, "Escherichia coli [31]": {"test_system": "Escherichia coli", "experiment": "Antibacterial activity against Escherichia coli SQ110 DTC harboring 23S rRNA A2058G mutant incubated for 16 to 20 hrs by CLSI based broth microdilution method", "type": "functional", "settings": "time 16-20 hrs"}, "Staphylococcus aureus [32]": {"test_system": "Staphylococcus aureus", "experiment": "Antibacterial activity against methicillin-resistant Staphylococcus aureus PU 32 harboring i-ermA gene incubated for 16 to 20 hrs by CLSI based broth microdilution method", "type": "functional", "settings": "time 16-20 hrs"}}, "data": [{"smiles": "CC[C@H]1OC(=O)[C@H](C)[C@@H](OC(=O)CCNCCCCNc2cc3c(cc2F)c(=O)c(C(=O)O)cn3C2CC2)[C@H](C)[C@@H](O[C@@H]2O[C@H](C)C[C@H](N(C)C)[C@H]2O)[C@](C)(OC)C[C@@H](C)/C(=N\\OCC#Cc2cncc(C(=O)NC)c2)[C@H](C)[C@H]2OC(=O)O[C@@]21C", "values": [{"measurement": "MBC", "setting": "Staphylococcus aureus [1]", "value": "> 256", "unit": "µg/mL"}, {"measurement": "MBC", "setting": "Streptococcus pyogenes [2]", "value": "> 0.5", "unit": "µg/mL"}, {"measurement": "Selectivity ratio", "setting": "Streptococcus pneumoniae [3]", "value": 8}, {"measurement": "MIC", "setting": "Streptococcus pyogenes [4]", "value": 0.06, "unit": "µg/mL"}, {"measurement": "MBC", "setting": "Streptococcus pneumoniae [5]", "value": 1, "unit": "µg/mL"}, {"measurement": "Selectivity ratio", "setting": "Escherichia coli [6]", "value": 2}, {"measurement": "IC50", "setting": "[7]", "value": 0.74, "unit": "µM"}, {"measurement": "MIC", "setting": "Escherichia coli [8]", "value": 8, "unit": "µg/mL"}, {"measurement": "MBC", "setting": "Haemophilus influenzae [9]", "value": 4, "unit": "µg/mL"}, {"measurement": "MIC", "setting": "Staphylococcus aureus [10]", "value": "> 256", "unit": "µg/mL"}, {"measurement": "Activity", "setting": "HEK-293T", "value": "Non-Toxic"}, {"measurement": "remaining at 1 h, 1 µM", "setting": "[11]", "value": 91.3, "unit": "%"}, {"measurement": "remaining at 1 h, 1 µM", "setting": "[12]", "value": 70.6, "unit": "%"}, {"measurement": "Selectivity ratio", "setting": "Streptococcus pneumoniae [13]", "value": ">=1"}, {"measurement": "Selectivity ratio", "setting": "Haemophilus influenzae [14]", "value": 2}, {"measurement": "MIC", "setting": "Streptococcus pneumoniae [15]", "value": "≤ 0.008", "unit": "µg/mL"}, {"measurement": "Selectivity ratio", "setting": "Escherichia coli [16]", "value": ">32"}, {"measurement": "Selectivity ratio", "setting": "Staphylococcus aureus [17]", "value": 1}, {"measurement": "MIC", "setting": "Escherichia coli [18]", "value": 4, "unit": "µg/mL"}, {"measurement": "MIC", "setting": "Streptococcus pneumoniae [19]", "value": 0.12, "unit": "µg/mL"}, {"measurement": "Activity", "setting": "HepG2", "value": "Non-Toxic"}, {"measurement": "MIC", "setting": "Streptococcus pneumoniae [20]", "value": "≤ 0.008", "unit": "µg/mL"}, {"measurement": "MIC", "setting": "Haemophilus influenzae [21]", "value": 2, "unit": "µg/mL"}, {"measurement": "half-life at 1 µM", "setting": "[22]", "value": 7.65, "unit": "h"}, {"measurement": "MIC", "setting": "Escherichia coli [23]", "value": "> 128", "unit": "µg/mL"}, {"measurement": "CLint scaled at 1 µM", "setting": "[24]", "value": 2.7, "unit": "mL/min/kg"}, {"measurement": "remaining at 1 h", "setting": "[25]", "value": 84.3, "unit": "%"}, {"measurement": "IC50", "setting": "DNA gyrase", "value": 11.9, "unit": "µM"}, {"measurement": "Selectivity ratio", "setting": "Escherichia coli [26]", "value": 1}, {"measurement": "MBC", "setting": "Staphylococcus aureus [27]", "value": 32, "unit": "µg/mL"}, {"measurement": "MBC", "setting": "Streptococcus pneumoniae [28]", "value": 0.008, "unit": "µg/mL"}, {"measurement": "MBC", "setting": "Streptococcus pneumoniae [29]", "value": 0.008, "unit": "µg/mL"}, {"measurement": "Selectivity ratio", "setting": "Streptococcus pyogenes [30]", "value": ">8"}, {"measurement": "MIC", "setting": "Escherichia coli [31]", "value": 4, "unit": "µg/mL"}, {"measurement": "MIC", "setting": "Staphylococcus aureus [32]", "value": 32, "unit": "µg/mL"}]}]}
